The text below walks through data of patent publication US20050214738A1, “Conditional allele system” (priority 2003, published 2005).

Experiment [1] deals with T1, KLF (Homo sapiens, UniProt P42345+P62942, T2098L/W2101F).
T1 construct: The minimal FRB domain comprises amino acids 2025-2114 of human mTor; expressed in transfected cells; host or cells: COS1 cells
In words: SeAP transcriptional switch assay, FRB mutant KLF. The experiment is classed as cell-based. Particulars: double mutant. As to the method: Drug efficacy was determined in a three-plasmid transcriptional switch reporter assay. ˜106 COS1 cells were coelectroporated with 2 μg of the DNA binding construct pBJ5-Gal4-FKBP(3), 2 μg pBJ5-VP16 (or the relevant mutant FRB) and 2 μg of the Gal4-SeAP reporter. Electroporation details are available upon request. Cells were immediately aliquoted to 2 or 3×96 well plates with flat bottoms. After 24 hours incubation media was supplemented with a rapalog in triplicate and in serial two fold dilutions. Following 24 hours further incubation, cells with media were wrapped carefully in plastic wrap and heated to 65° C. for two hours to inactivate endogenous phosphatases. 50 μL of media was transferred to a black 96 well plate (Costar 3915) and supplemented with 1 mM methylumbelliferrylphosphate (Sigma, St. Louis, Mo.) in 1M diethanolamine (pH 10.0 with carbonate). After 16 hours incubation at 37° C. SeAP activity was measured by fluorescence with a Spectamax M2 fluorometer (Molecular Devices, Sunnyvale, Calif.) with transmission set at 355 nm and emmission set at 460 nm. Data was analysed with Softmax Pro (Molecular Devices), Microsoft Excel and Prism 3 (GraphPad Software).

Experiment [2] deals with T2, FKBP-GSK3β-GFP (Homo sapiens, UniProt P62942).
T2 construct: expressed in transfected cells; host or cells: COS1 cells
In words: Sub-cellular localization of FKBP-GSK3β-GFP with FRB(TLW)-NES and FRB(KTF)-NLS in COS1 cells. It is filed as cell-based. To be noted: 10 nM, 1 hour. As to the method:
COS1 cells were electroporated with 1 μg pS-FKBP-GSK3β-GFP, 1 μg of the ‘exporter’ pBJ5-FRB(TLW)-Exp-HA containing a nuclear export sequence derived from the rev protein of Human Immunodeficiency Virus and 3 μg of the ‘importer’ pBJ5-FRB(KTF)-Imp with a nuclear localization sequence from SV40 Large T antigen. Cells were plated on autoclaved coverslips and incubated 36 hours followed by 1 hour of rapalog treatment (10 nM). Cells were fixed 10 minutes in 4% paraformaldeyde/PBS at 4° C. and mounted for microscopy with DAPI to visualize the nucleus. Microscopy was perfomed with a Leica confocal microscope and Leica software.

Experiment [3] concerns the target T3, GSK-3βFRB* (UniProt P26883+P42345, K2095P/T2098L/W2101F). As to the kind of experiment: Stabilization of transfected GSK-3β FRB* in MEFs (Western blot). It is filed as cell-based, mouse. More on the design: The minimal FRB domain comprises amino acids 2025-2114 of human mTor; GSK-3β (fusion partner); expressed in transfected cells; host or cells: wild-type mouse embryonic fibroblasts (MEFs). To be noted: transiently transfected MEFs, drug for 36 h. As to the method: MEFs were transfected using FuGENE-6 (Roche Applied Science). Plasmid DNA (5 μg per 6 cm dish) was mixed in a 1:2 ratio with the FuGENE-6 reagent in Opti-MEM (Invitrogen Life Technologies) before being applied to the cells growing in DMEM/10% FCS and containing C20-MaRap where appropriate. After 12 hours, the cells were split to 6 well plates before further drug treatments to ensure each well contained an equivalently transfected population.
Western Blot analysis was carried out using cell lysates prepared in RIPA buffer (10 mM Tris pH 7.2, 150 mM NaCl, 0.1% SDS, 1% Triton X-100, 1% deoxycholate, 5 mM EDTA, protease inhibitor cocktail (Invitrogen Life Technologies)) and then separated using standard SDS/PAGE before being transferred to PVDF (Millipore) using standard Western blotting procedures. The anti-GSK-3β antibody, used at 1:2500, the anti-HSP-90 antibody, 1:2500, and the anti-FKBP12 antibody, 1:2500, were purchased from BD Transduction Labs. The anti-β-catenin antibody, 1:2000, and anti-HSP-70 antibody, 1:1000 were purchased from Santa Cruz Biotechnology. The anti-BRG1 antibody, 1:1000, was previously prepared in our laboratory (Khavari, P. A. et al. “BRG1 Contains a Conserved Domain of the SWI2/SNF2 Family Necessary for Normal Mitotic Growth and Transcription.” (1993) Published in Nature 366, 170-174). […]
(In general: Immunoblotting shows a protein as a band on a membrane.)

The target in experiment [4] is T3, GSK-3βFRB*. As to the kind of experiment: Inducible stabilization of GSK-3βFRB* in knock-in MEFs (Western blot). The experiment is classed as cell-based, mouse. More on the design: The minimal FRB domain comprises amino acids 2025-2114 of human mTor; endogenous in cells; host or cells: MEFs from GSK-3β^FRB* knock-in mice (fusion expressed from the targeted endogenous locus). As to the method: MEFs cell lines were prepared from E14.5-E16.5 embryos of indicated genotypes by eviscerating the embryos in HBSS, treating the remaining tissue with 0.2% collagenase and trypsin, and plating the cells in DMEM containing 10% FCS, antibiotics, and 0.1 mM β-mercaptoethanol. Once established, the MEFs were cultured using standard techniques and treated with various small molecules as indicated.
Western Blot analysis was carried out using cell lysates prepared in RIPA buffer (10 mM Tris pH 7.2, 150 mM NaCl, 0.1% SDS, 1% Triton X-100, 1% deoxycholate, 5 mM EDTA, protease inhibitor cocktail (Invitrogen Life Technologies)) and then separated using standard SDS/PAGE before being transferred to PVDF (Millipore) using standard Western blotting procedures. The anti-GSK-3β antibody, used at 1:2500, the anti-HSP-90 antibody, 1:2500, and the anti-FKBP12 antibody, 1:2500, were purchased from BD Transduction Labs. The anti-β-catenin antibody, 1:2000, and anti-HSP-70 antibody, 1:1000 were purchased from Santa Cruz Biotechnology. […] In all cases, Western blots were incubated overnight with the appropriate primary antibodies in TBST (10 mM Tris 8.0, 150 mM NaCl, 0.1% Tween-20) containing 10% dry milk, and then washed 3 times with TBST. The blots were subsequently incubated for 30 minutes with HRP-conjugated secondary antibodies from Jackson Immunoresearch, washed 3 more times with TBST, and then developed using standard ECL reagents (Amersham Biosciences) and Kodak XAR film.

T3 sequence (P42345 2025-2114 K2095P/T2098L/W2101F): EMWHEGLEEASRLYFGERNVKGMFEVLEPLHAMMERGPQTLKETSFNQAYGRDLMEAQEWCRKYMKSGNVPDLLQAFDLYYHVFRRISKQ
T3 sequence (P26883 2-108): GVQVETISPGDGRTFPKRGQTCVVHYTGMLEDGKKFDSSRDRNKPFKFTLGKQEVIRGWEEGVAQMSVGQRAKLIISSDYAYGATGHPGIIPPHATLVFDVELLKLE
T2 sequence (P62942 whole entry): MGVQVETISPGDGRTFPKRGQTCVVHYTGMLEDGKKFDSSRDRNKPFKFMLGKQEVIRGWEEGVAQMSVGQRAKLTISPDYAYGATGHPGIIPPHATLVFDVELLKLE
T1 sequence (P42345 2025-2114 T2098L/W2101F): as the sequence (P42345 2025-2114 K2095P/T2098L/W2101F) above, with P71K counted along it
T1 sequence (P62942 whole entry, the tested form may be a part): as the sequence (P62942 whole entry) above

In turn, “C20-(R or S)-methallylrapamycin [C20-MaRap]” displayed an EC50 in experiment [1] of 7.8 nM. Moreover, the “sub-cellular localization of GSK3β” value in experiment [2] is given as “localization of GSK3β to the nucleus”. The “GSK-3β FRB* expression” value in experiment [3] is “restored GSK-3β FRB* expression to normal”. In experiment [4] (GSK-3βFRB*/FRB* MEFs, 36 hour treatment, 100 nM), the “GSK-3βFRB* levels” value is “restored GSK-3βFRB* levels”. Further, the “effect on wild-type GSK-3β, β-catenin, or HSP-90 expression” value in experiment [4] (MEFs) is given as “neither drug had an effect”. Further, the “stabilization in fibroblasts lacking detectable FKBP12 expression” value in experiment [4] (doubly homozygous GSK-3βFRB* and FKBP12IM, 100 nM 36 hours) is listed as “complete loss of C20-MaRap-induced stabilization”. In experiment [4] (heterozygous MEFs, 100 nM), the “time of half maximal stabilization” value fell in the range of 8 to 12 h and the “time to complete stabilization” value was “approximately 24 hours”.

The EC50 is the concentration that produces a half-maximal response. High values mean a less potent agent, low ones a more potent agent.
